Literature values in patent EP0490031B1, “Method for protecting crops while eliminating crop injury due to pesticide interactions” (priority 1990, dated 1992).

What was measured:
rabbits = details: technical grade

| SMILES | acute percutaneous LD50 (rats) | acute percutaneous LD50 (rabbits) |
| --- | --- | --- |
| CCOP(=S)(OCC)SCSCC [Phorate] | 2.5-6.2 mg/kg of animal body weight | – |
| CCOP(=S)(OCC)SCSC(C)(C)C [Technical grade terbufos, O,O-diethyl S-{[(1,1-dimethylethyl)thio]methyl}phosphorodithioate] | – | 1.0 mg/kg of animal body weight |
